For the test, the target named is T1, Octα2R (α2-adrenergic-like octopamine receptor) (Drosophila melanogaster, UniProt Q9VE32).
T1 sequence (Q9VE32 1-699): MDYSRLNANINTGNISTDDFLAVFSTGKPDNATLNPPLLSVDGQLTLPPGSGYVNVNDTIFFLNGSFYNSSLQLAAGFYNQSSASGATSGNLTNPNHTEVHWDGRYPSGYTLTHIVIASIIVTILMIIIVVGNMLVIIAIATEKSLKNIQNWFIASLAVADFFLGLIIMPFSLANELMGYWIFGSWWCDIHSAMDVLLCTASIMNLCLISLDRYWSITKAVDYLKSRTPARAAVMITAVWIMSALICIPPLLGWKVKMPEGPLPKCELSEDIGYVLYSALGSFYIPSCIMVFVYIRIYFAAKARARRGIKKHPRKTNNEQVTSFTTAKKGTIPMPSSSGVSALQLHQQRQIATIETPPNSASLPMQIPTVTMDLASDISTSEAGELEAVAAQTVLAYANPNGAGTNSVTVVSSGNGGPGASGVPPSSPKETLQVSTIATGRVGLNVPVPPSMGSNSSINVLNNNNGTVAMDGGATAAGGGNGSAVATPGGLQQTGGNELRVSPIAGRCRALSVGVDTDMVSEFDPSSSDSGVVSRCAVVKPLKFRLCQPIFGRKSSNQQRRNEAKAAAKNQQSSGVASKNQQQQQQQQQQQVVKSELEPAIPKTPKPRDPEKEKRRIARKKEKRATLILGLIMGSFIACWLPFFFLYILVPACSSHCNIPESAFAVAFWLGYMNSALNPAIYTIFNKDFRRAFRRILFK
The test is described as follows: aequorin Ca2+ luminescence, inhibition of octopamine response, HEK-293 cells. In kind it is cell-based.
For the compound `NC1=NCC2c3ccccc3Cc3ccccc3N12` (stereo not drawn) [EP, epinastine], the IC50 was found to be 100 nM. To `Cc1ccc(N(CC2=NCCN2)c2cccc(O)c2)cc1` [PA, phentolamine] belongs 93 nM; to `COC(=O)[C@@H]1[C@H]2C[C@H]3c4[nH]c5ccccc5c4CCN3C[C@@H]2CC[C@@H]1O` [YO, yohimbine], 18000 nM.

These data come from PMC9744561 (Genes, Brain, and Behavior, 2022).
